Measured values reported in PMC4872784 (Oncotarget, 2016).
“And” between values parts separate entries of the source, which are not always exact repeats. Equal entries are not always repeated.

How the values were obtained:
[1] = system: MOLM14 cells; assay: alamarBlue cytotoxicity assay, 48h; format: cell-based, human; conditions: for IC50: MOLM14 (AML), 48h, RPMI + 10% FBS
Experimental: (§1) Following subtraction of background fluorescence from all wells, fluorescence of drug-treated cells was normalized to that of vehicle (<0.5% DMSO)-treated cells to determine the effect of each drug concentration on viability. Each cell line was tested in triplicate and in at least three independent experiments. IC50 (concentration that inhibits cell growth by 50%) values were calculated using CompuSyn software (ComboSyn, Paramus, NJ). […] In addition several cell lines were initially cultured and tested in alternative media (Supplementary Table S2). […] Colony counts were normalized to vehicle-treated controls (100%). Three independent experiments were performed.
(§2) In most experiments, cytotoxicity was assessed using alamarBlue assays (Life Technologies, Grand Island, NY). In experiments using NAC and DFO, which can interfere with alamarBlue assay performance, Trypan Blue dye exclusion was used instead. […]
(§3) experiments performed in triplicate. […] Age refers to age […]
(§4) at the time of leukemia diagnosis of the patient from whom the cell line was derived. (–) Indicates information unavailable.
(§5) *Cell lines with FLT3/ITD mutations.
(§6) *The MV-4–11 cell line was derived from a patient with a biphenotypic B-myelomonocytic leukemia; K562 was derived […]
(§7) 1A. p53 status was obtained from http://cancer.sanger.ac.uk/cell_lines/cbrowse/all and http://p53.free.fr/Database/Cancer_ cell_lines/Leukemia_cancer. html. WT: wild type. Mut: mutant. SM: single mutation. DM: double mutation. MM: multiple mutations. Fs: Frameshift mutation. Null: protein expression undetectable. […]
(§8) measured via alamarBlue assay. […]

[2] = system: KOPN8 cells; assay: alamarBlue cytotoxicity assay, 48h; format: cell-based, human; conditions: RPMI + 10% FBS
Experimental: as §1, §2, §3, §4, §5, §6, §7, §8

[3] = system: MOLM14 xenograft; assay: subcutaneous MOLM14 AML xenograft; conditions: for average tumor mass less than vehicle-treated tumors: day 21
Experimental: CBCs were performed on day 23 (Supplementary Figure S8). Mice were euthanized when tumors reached an estimated 2000mg. […] B. Percent of Day 0 body weight. […] C. Kaplan-Meier survival analysis. […] D. Percent of Day 0 body weight.

[4] = system: MOLM14 cells; assay: apoptosis (Annexin-V/7-AAD flow cytometry); format: cell-based, human; conditions: 24h
Experimental: (§9) A. Quantification of the percentage of early apoptotic cells (Annexin-V+/7-AAD-) from three independent experiments in which cells were stained for apoptosis with 7-AAD and Annexin-V then analyzed by flow cytometry. […] C. […] 16h after addition of drugs, cells were washed and analyzed by flow cytometry for CM-H2DCFDA fluorescence (indicating total ROS generation) in the FL1 channel. Mean Fluorescence Intensity (MFI) was normalized to that of vehicle control (0.5% DMSO) with no pretreatment. […] Viable cell counts, obtained via Trypan Blue dye exclusion, were normalized to vehicle (0.02% DMSO)-treated samples +/– pretreatment.
(§10) Cells were co-stained with […] each 7-AAD and APC-conjugated Annexin-V (BioLegend), in Annexin-V binding buffer and analyzed by flow cytometry. Caspase-3/7 activity was measured using a Caspase-Glo 3/7 Assay (Promega, Madison, WI).

[5] = system: K562 cells; assay: clonogenicity (colony formation in semi-solid medium); format: cell-based, human; conditions: 24h pretreatment
Experimental: (§11) page 2: Supplementary Figure S3: […] hours. Two B-ALL (KOPN8, SEM) and two AML (MOLM14, THP-1) cell lines were treated with the indicated concentrations of ART- 838 or AS for 24–96 h, then viability determined as in Figure 1A. Data are represented as mean +/– SD. Supplementary Figure S4: […] Colony-forming assays were performed as in Figure 1B in A. K562 and B. HL-60 AML cell lines. Each experiment was performed once in triplicate. Data are represented as mean +/– SD.

[6] = system: HL-60 cells; assay: as above; format: cell-based, human; conditions: 24h pretreatment
Experimental: as §11

[7] = system: Jurkat T-cell acute lymphoblastic leukemia (T-ALL) cells; parameters: method as in PMID 23673218; conditions: cited from earlier work
[8] = system: MOLM14 cells; assay: total ROS generation (CM-H2DCFDA flow cytometry); format: cell-based, human; conditions: 16h
Experimental: as §9
Cells were preloaded with 5 μM 5-(and-6)-chloromethyl-2′,7′-dichlorodihydrofluorescein diacetate (CM-H2DCFDA, Life Technologies) in PBS (30min, 37°C), then washed before drug treatment. Following 16h incubation with drugs, cells were analyzed by flow cytometry.

[9] = in vivo; conditions: male, NSG, mouse, plasma, po, 200 mg/kg
Experimental: Plasma samples were obtained from 3-6 male NSG mice per time point (15min-24h after drug administration). Symbols represent concentrations of compound by LC/MS-MS detection.
Blood samples were collected via retro-orbital bleeding into EDTA-coated tubes. PK samples were centrifuged to obtain plasma, which was stored frozen (−80°C) until liquid chromatography/triple quadrupole mass spectrometry (LC/MS-MS) analysis.
were separated using an Agilent Zorbax Eclipse C18 column (2.1 mm x 50 mm, 3.5 μm) using gradient mobile phase
(acetonitrile and 2 mM ammonium acetate both containing 0.1% formic acid) and a gradient flow rate (0.2 to 0.4 ml/
min). An AB Sciex 5500 triple quadrupole mass spectrometer was used for detection. The m/z transitions used were
The calibration range was 5–1,000 ng/mL for all analytes. Mean drug concentrations were calculated at each time point. PK parameters (plasma
half-life [T1/2]; time to reach Cmax [Tmax]; maximum plasma concentration [Cmax]; area under the plasma concentration-
time curve [AUC] from time zero to the last measurable concentration [AUClast]; AUC from time zero to infinity [i.e.,
the AUClast + the extrapolated AUC from AUClast to infinity; AUC0–∞]; apparent volume of distribution [Vz/F]; body
weight-adjusted apparent clearance [CL/F/kg]) were calculated from mean drug concentration-time data using non-
the r2 of the elimination rate constant (λ ) was < 0.9, the AUC , CL/F, and T were not reported (NR).

[10] = system: Caspase-3/7 activity in MOLM14 cells; assay: Caspase-Glo 3/7 Assay; format: cell-based, human; conditions: AS 5 μM, 24h
Experimental: as §9, §10

[11] = in vivo; conditions: NSG, mouse, in vivo, po
Experimental: Blood samples were collected via
retro-orbital bleeding into EDTA-coated tubes from MOLM14 NSG mice 1 day A-D. and 7 days E-H. after completion of a 5-day drug
CBCs were determined using a Hemavet 950 analyzer.
Normal blood samples were obtained from normal, untreated NSG mice (n = 37) over several years.

Q: Which IC90 ([1]; MOLM14) does the source give for `C[C@@H]1CCC2[C@@H](C)[C@@H](CC(COP(=O)(Oc3ccccc3)Oc3ccccc3)C[C@H]3O[C@@H]4O[C@@]5(C)CCC6[C@H](C)CCC([C@H]3C)[C@]64OO5)O[C@@H]3O[C@@]4(C)CCC1[C@@]23OO4` (some centres unmarked) [ART-838, artemisinin-derived trioxane diphenylphosphate dimer 838] here?
A: Its IC90 is 100 nM.

Q: And the IC50 [1]?
A: The IC50 was 25 nM.

Q: What about the “growth inhibition by 48h” value ([1]; MOLM14, 0.1 μM ART-838, alamarBlue) of the same compound?
A: The value was 90-99%.

Q: And the IC50 ([2]; KOPN8 (B-ALL))?
A: The IC50 was 12 ± 2 nM.

Q: What about the “average tumor mass less than vehicle-treated tumors” value ([3]; two 5-day cycles ART-838 50 mg/kg/d oral gavage) of the same compound?
A: The value was 83%.

Q: And the “complete and differential blood cell counts” value ([3]; tumor-bearing NSG mice, day 23, after two 5-day cycles ART-838 50 mg/kg/d)?
A: Its value is “within the normal range”.

Q: And the “fold lower concentration than AS achieving similar levels of apoptosis and caspase-3/7 activity” value [4]?
A: Its value is 50 fold.

Q: What about the clonogenicity [5] of the same compound?
A: The clonogenicity was “reduced clonogenicity”.

Q: And the clonogenicity [6]?
A: The clonogenicity was “reduced clonogenicity”.

Q: What about the “fold lower IC50 than that of AS” value [7] of the same compound?
A: The value was roughly 70 fold.

Q: And the “total cellular ROS levels” value ([8]; ART-838 0.1 μM)?
A: Its value is “significantly increased total cellular ROS levels”.

Q: For `C[C@H]1[C@H](OC(=O)CCC(=O)O)O[C@@H]2O[C@@]3(C)CC[C@H]4[C@H](C)CC[C@@H]1[C@@]24OO3` [AS, artesunate], which AUC(0-t) [9] is on record?
A: Its AUC(0-t) is 34.8 ng·h/mL.

Q: And the Cmax [9]?
A: The Cmax was 67 ng/mL and 240 nM.

Q: And the Tmax [9]?
A: The Tmax was 15 min.

Q: What about the inhibition at 5 µM ([1]; Homo sapiens, MOLM-14, 48 h, MOLM14, 5 μM AS, alamarBlue, read-out: growth inhibition by 48h) of the same compound?
A: Its inhibition at 5 µM is 90 to 99%.

Q: And the IC90 ([1]; Homo sapiens, MOLM-14, MOLM14)?
A: Its IC90 is 5000 nM.

Q: And the IC50 ([1]; Homo sapiens, MOLM-14)?
A: The IC50 was 825 nM.

Q: What about the IC50 ([2]; Homo sapiens, KOPN-8, KOPN8 (B-ALL)) of the same compound?
A: The IC50 was 459 ± 49 nM.

Q: What about the “average tumor mass less than vehicle-treated tumors” value ([3]; two 5-day cycles AS 200 mg/kg/d oral gavage) of the same compound?
A: The value was 44%.

Q: What about the apoptosis ([4]; AS 5 μM) of the same compound?
A: The apoptosis was “induced significant apoptosis”.

Q: And the clonogenicity [5]?
A: The clonogenicity was “reduced clonogenicity”.

Q: And the clonogenicity [6]?
A: The clonogenicity was “reduced clonogenicity”.

Q: And the caspase-3/7 activity [10]?
A: The caspase-3/7 activity was “caspase-3/7 activation”.

Q: And the “total cellular ROS levels” value ([8]; AS 5 μM)?
A: The value was “significantly increased total cellular ROS levels”.

Q: And the MTD [11]?
A: Its MTD is 500 to 600 mg/kg.

Q: And the MTD at 5 days/week [11]?
A: The MTD at 5 days/week was 150 to 200 mg/kg.
